Results from the supplement of paper PMC11208160.

test: recombinant barcode read abundance after kanamycin selection (control-corrected) (log10(CPM+1)); higher = more efficient recombination; sequences stand for … in AGTGCAGAGAAAATCGGCCAGTTTTCTCTGCCTGCAGTCCGCATGCCGT…ATTTATGCAGCGGACTGCCTTTCTCCCAAAGTGATAAACCGGACAGTATCATGGACCGGTTTTCCCGGTAATCCGTATTTGCAAGGTTGGTTTCACT; site = the 11-nt target
Method in brief: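 Oligos holding a promoter, target, barcode and the J23119-driven first 104 bases of the bridge RNA were Gibson-cloned into a vector that supplied the other 73 bp plus a T7-inducible recombinase. This library was co-electroporated with a donor plasmid into E. coli. Two replicates went on chloramphenicol/ampicillin LB agar (control) and two on chloramphenicol/ampicillin/kanamycin with 0.1 mM IPTG. Recombination efficiency is read from averaged, control-corrected barcode counts per million at recombinant junctions, reported as log10(CPM+1).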

| Sequence | recombinant barcode read abundance (log10) |
| --- | --- |
| GGACACCGGTGGGTTCTAACCTGTTGCCTAG [GGACACCCTAG_LTGcore_GG_RTGcore_CT] (site GGACACCCTAG) (LTG core: GG, RTG core: CT) | 0.255 |
| GGCTCCCAATGGGTTCTAACCTGTTGCGGAG [GGCTCCCCTCC_LTGcore_AA_RTGcore_CT] (site GGCTCCCCTCC) (LTG core: AA, RTG core: CT) | 0 |
| GGCTCCCACTGGGTTCTAACCTGTTGCGGAG [GGCTCCCCTCC_LTGcore_AC_RTGcore_CT] (site GGCTCCCCTCC) (LTG core: AC, RTG core: CT) | 0.149 |
| GGCTCCCACTGGGTTCTAACCTGTTGCGGGT [GGCTCCCCTCC_LTGcore_AC_RTGcore_AC] (site GGCTCCCCTCC) (LTG core: AC, RTG core: AC) | 0.143 |
| GGCTCCCAGTGGGTTCTAACCTGTTGCGGAG [GGCTCCCCTCC_LTGcore_AG_RTGcore_CT] (site GGCTCCCCTCC) (LTG core: AG, RTG core: CT) | 0.156 |
| GGCTCCCCTTGGGTTCTAACCTGTTGCGGAA [GGCTCCCCTCC_LTGcore_CT_RTGcore_TT] (site GGCTCCCCTCC) (LTG core: CT, RTG core: TT) | 0.164 |
| GGCTCCCCTTGGGTTCTAACCTGTTGCGGCT [GGCTCCCCTCC_LTGcore_CT_RTGcore_AG] (site GGCTCCCCTCC) (LTG core: CT, RTG core: AG) | 0.0367 |
| GGCTCCCGATGGGTTCTAACCTGTTGCGGAG [GGCTCCCCTCC_LTGcore_GA_RTGcore_CT] (site GGCTCCCCTCC) (LTG core: GA, RTG core: CT) | 0.104 |
| GGCTCCCGATGGGTTCTAACCTGTTGCGGTC [GGCTCCCCTCC_LTGcore_GA_RTGcore_GA] (site GGCTCCCCTCC) (LTG core: GA, RTG core: GA) | 0.109 |
| GGCTCCCTATGGGTTCTAACCTGTTGCGGTA [GGCTCCCCTCC_LTGcore_TA_RTGcore_TA] (site GGCTCCCCTCC) (LTG core: TA, RTG core: TA) | 0.201 |
| GGCTCCCTCTGGGTTCTAACCTGTTGCGGAG [GGCTCCCCTCC_LTGcore_TC_RTGcore_CT] (site GGCTCCCCTCC) (LTG core: TC, RTG core: CT) | 0.172 |
| GGGAGCCATTGGGTTCTAACCTGTTGCTGAG [GGGAGCCCTCA_LTGcore_AT_RTGcore_CT] (site GGGAGCCCTCA) (LTG core: AT, RTG core: CT) | 0.526 |
| GGGAGCCCGTGGGTTCTAACCTGTTGCTGAG [GGGAGCCCTCA_LTGcore_CG_RTGcore_CT] (site GGGAGCCCTCA) (LTG core: CG, RTG core: CT) | 0.27 |
| GGGAGCCCTTGGGTTCTAACCTGTTGCTGAG [GGGAGCCCTCA_LTGcore_CT_RTGcore_CT] (site GGGAGCCCTCA) (LTG core: CT, RTG core: CT) | 1.87 |
| GGGAGCCCTTGGGTTCTAACCTGTTGCTGCT [GGGAGCCCTCA_LTGcore_CT_RTGcore_AG] (site GGGAGCCCTCA) (LTG core: CT, RTG core: AG) | 0.652 |
| GGGAGCCCTTGGGTTCTAACCTGTTGCTGGC [GGGAGCCCTCA_LTGcore_CT_RTGcore_GC] (site GGGAGCCCTCA) (LTG core: CT, RTG core: GC) | 0.0756 |
| GGGAGCCCTTGGGTTCTAACCTGTTGCTGGG [GGGAGCCCTCA_LTGcore_CT_RTGcore_CC] (site GGGAGCCCTCA) (LTG core: CT, RTG core: CC) | 0.111 |

| Sequence | recombinant barcode read abundance (log10) |
| --- | --- |
| GGGAGCCCTTGGGTTCTAACCTGTTGCTGGT [GGGAGCCCTCA_LTGcore_CT_RTGcore_AC] (site GGGAGCCCTCA) (LTG core: CT, RTG core: AC) | 0.208 |
| GGGAGCCGATGGGTTCTAACCTGTTGCTGTC [GGGAGCCCTCA_LTGcore_GA_RTGcore_GA] (site GGGAGCCCTCA) (LTG core: GA, RTG core: GA) | 0.0745 |
| GGGAGCCTGTGGGTTCTAACCTGTTGCTGAG [GGGAGCCCTCA_LTGcore_TG_RTGcore_CT] (site GGGAGCCCTCA) (LTG core: TG, RTG core: CT) | 0.259 |
| GGGAGCCTGTGGGTTCTAACCTGTTGCTGCA [GGGAGCCCTCA_LTGcore_TG_RTGcore_TG] (site GGGAGCCCTCA) (LTG core: TG, RTG core: TG) | 0.285 |
| GGGCGGAACTGGGTTCTAACCTGTTGCGGGT [GGGCGGACTCC_LTGcore_AC_RTGcore_AC] (site GGGCGGACTCC) (LTG core: AC, RTG core: AC) | 0.3 |
| GGGCGGAATTGGGTTCTAACCTGTTGCGGAG [GGGCGGACTCC_LTGcore_AT_RTGcore_CT] (site GGGCGGACTCC) (LTG core: AT, RTG core: CT) | 0.637 |
| GGGCGGACCTGGGTTCTAACCTGTTGCGGAG [GGGCGGACTCC_LTGcore_CC_RTGcore_CT] (site GGGCGGACTCC) (LTG core: CC, RTG core: CT) | 1.4 |
| GGGCGGACTTGGGTTCTAACCTGTTGCGGAC [GGGCGGACTCC_LTGcore_CT_RTGcore_GT] (site GGGCGGACTCC) (LTG core: CT, RTG core: GT) | 0.135 |
| GGGCGGACTTGGGTTCTAACCTGTTGCGGGA [GGGCGGACTCC_LTGcore_CT_RTGcore_TC] (site GGGCGGACTCC) (LTG core: CT, RTG core: TC) | 1.29 |
| GGGCGGACTTGGGTTCTAACCTGTTGCGGTC [GGGCGGACTCC_LTGcore_CT_RTGcore_GA] (site GGGCGGACTCC) (LTG core: CT, RTG core: GA) | 0.104 |
| GGGCGTGCATGGGTTCTAACCTGTTGCCTAG [GGGCGTGCTAG_LTGcore_CA_RTGcore_CT] (site GGGCGTGCTAG) (LTG core: CA, RTG core: CT) | 0.233 |
| GGGCGTGCCTGGGTTCTAACCTGTTGCCTAG [GGGCGTGCTAG_LTGcore_CC_RTGcore_CT] (site GGGCGTGCTAG) (LTG core: CC, RTG core: CT) | 0.255 |
| GGGCGTGCTTGGGTTCTAACCTGTTGCCTCG [GGGCGTGCTAG_LTGcore_CT_RTGcore_CG] (site GGGCGTGCTAG) (LTG core: CT, RTG core: CG) | 0.166 |
| GGGCGTGCTTGGGTTCTAACCTGTTGCCTTA [GGGCGTGCTAG_LTGcore_CT_RTGcore_TA] (site GGGCGTGCTAG) (LTG core: CT, RTG core: TA) | 0.139 |
| GGGCGTGGATGGGTTCTAACCTGTTGCCTAG [GGGCGTGCTAG_LTGcore_GA_RTGcore_CT] (site GGGCGTGCTAG) (LTG core: GA, RTG core: CT) | 0.0898 |
| GGGCGTGGCTGGGTTCTAACCTGTTGCCTAG [GGGCGTGCTAG_LTGcore_GC_RTGcore_CT] (site GGGCGTGCTAG) (LTG core: GC, RTG core: CT) | 0.276 |
| GGGCGTGTTTGGGTTCTAACCTGTTGCCTAG [GGGCGTGCTAG_LTGcore_TT_RTGcore_CT] (site GGGCGTGCTAG) (LTG core: TT, RTG core: CT) | 0.0908 |
